In assay [1] the test system is Human umbilical vein endothelial cells (HUVEC). Description: SA β-galactosidase staining of HUVEC grown on glycated collagen (premature senescence). The class given is cell-based. Conditions: for reversal of premature senescence in HUVECs on GC (SA β-galactosidase staining, FIG. 1): HUVECs on GC 3 days, then compound every 12 hours until staining on day 5, GC dilutions 1:3, 1:6, 1:10 in native collagen; for development of premature senescence (SA β-galactosidase staining) in HUVECs grown on GC: ebselen 1 μmol/L, NOHA 0.1 mmol/L, MnTBAP 2.5 μmol/L, applied day 1, 2 hours after plating, added daily, studied day 3. The method, then: Detection of SA-β-galactosidase was carried out utilizing the histochemical staining method of Dimitri et al, Proc. Natl. Acad. Sci. USA 92, 9363-9367 as modified by Van der Loo, B., et al, Exp. Cell Res. 241, 309-315 (1998). SA β-galactosidase is a known senescence marker. […] This phenomenon occurred in 12 week and 21 week-old diabetic rats, but was undetectable in age-matched Zucker lean rats (0/24 branches examined).
Human umbilical vein endothelial cells (HUVEC) after four passages were plated on glycated collagen with or without the addition of 0.1 mM ebselen. Application was made on day 1, 2 hours after plating. The extent of SA β-galactosidase staining was evaluated on days 3 and 5 of culture on a glycated or native collagen matrix. In addition, to study the reversibility process, HUVEC were plated on glycated collagen for three days (time sufficient to induce premature senescence), and ebselen was added every 12 hours, starting on day 3, and the cells were examined on day 5.
These concentrations of compounds were chosen based on preliminary experiments testing effects of a range of concentrations for each compound and selecting the lowest one which was efficient but non-cytotoxic. Ebselen, NOHA, and MnTBAP were each applied on day 1, 2 hours after HUVEC plating, added daily, and cells were studied on day 3. HUVECs grown on both glycated and native matrix were examined for the extent of SA β-galactosidase staining. […] In addition, to test for reversibility of senescence by ebselen, NOHA, or MnTBAP, HUVECs were plated on GC for 3 days (time sufficient to induce premature senescence) and thereafter ebselen (ebs), NOHA, or MnTBAP were added every 12 hours, until SA β-galactosidase staining on day 5. […] Dashed lines show the data obtained in HUVECs cultured on native collagen (NC).

Assay [2] has as its system endothelial cells from saphenous vein. Description: Artificial vascular graft seeded with endothelial cells cultured with ebselen, implanted in patient (Example VI). The class given is in vivo, human. Conditions: cells cultured with 10-100 μg/ml at 35° C. for 2-3 weeks; versus patients not receiving ebselen. As for the experimental part: A person with peripheral vascular disease is undergoing an elective femoral-to-popliteal bypass surgery utilizing an artificial vascular graft. A saphenous vein is obtained to harvest endothelial cells for expansion and seed onto the surface of a graft. Endothelial cells are isolated from the graft and cultured in a medium containing ebselen or ebselen-class compound at a concentration of 10-100 μg/ml at 35° C. for 2-3 weeks, and cells are seeded onto the graft in the continuous presence of the same concentration of ebselen or ebselen-class compound. Thus prepared, the vascular graft is implanted.

For assay [3] the test system is unchanged. Description: Artificial heart valve seeded with endothelial cells cultured with ebselen, implanted in patient (Example V). The assay is classed as in vivo, human. The settings on record: cells cultured with 10-100 μg/ml at 35° C. for 2-3 weeks; versus patients not receiving ebselen. As for the experimental part: A person with a defective heart valve is being prepared for a surgical replacement of the valve with a prosthetic device. A saphenous vein is obtained to harvest endothelial cells for expansion and seeding onto the surface of a artificial valve. Endothelial cells are isolated from the graft and cultured in a medium containing ebselen or ebselen-class compound at a concentration of 10-100 μg/ml at 35° C. for 2-3 weeks and cells are seeded onto the valve in the continuous presence of the same concentration of ebselen or ebselen-class compound. Thus prepared, the artificial valve is implanted.

In another assay the test system is Alzheimer's disease. The assay can be described thus: Patient with Alzheimer's disease treated with ebselen or ebselen-class compounds (Example III). The assay is classed as in vivo, human. The settings on record: 1-20 mg/kg thrice/day alone or with antioxidant agents and vitamins; two years later. As for the experimental part:
A person with no known medical conditions has been experiencing a sustained loss of short-term memory for the past three years. Their CBC, electrolytes and other plasma metabolites are within normal range. There is no vitamin deficiency, no abnormalities in liver function tests, and no previous history of cerebro-vascular accidents. […] Based on these findings the patient is diagnosed with Alzheimer's disease. Therapy with ebselen or other ebselen-class compounds is initiated at doses of 1-20 mg/kg thrice/day alone or in combination with antioxidant agents and vitamins (e.g., ascorbate, alpha-tocopherol, vitamin B6, vitamin B12, folate (folic acid), carotenoids, coenzyme Q10, phytoestrogens (including isoflavonoids), butylated hydroxytoluene (BHT), butylated hydroxyanisole (BHA) and n-3 polyunsaturated fatty acids (PUFA)).

Another assay concerns diabetes mellitus. Description: Patient with poorly controlled diabetes mellitus treated with ebselen (Example II). The settings on record: ebselen 1-20 mg/kg thrice/day, 6 months later. The class given is in vivo, human. The method, then: A patient with type I (alternatively, a patient with type 2) diabetes mellitus, past medical history of myocardial infarction, peripheral vascular disease, hypertension, proteinuria and non-healing foot ulcer, is receiving insulin, but experiences poor therapeutic response. Patient's fasting blood glucose level is 200 mg/dl. Additional laboratory findings include elevated Hgb Alc level (8.5%) as well as one of the following signs of AGE accumulation: elevated level of pentosidine (2.3 pmol/mg) or elevated level of Amadori serum albumin (41 U/ml). (In some cases, renal biopsy will be performed, which will directly disclose the deposition of AGE in the renal parenchyma and increased proportion of SA-beta-galactosidase-stained endothelial cells). […] Similar results are obtained in similar patients who are administered other ebselen-class compounds.

The test system of the next assay is end stage renal disease. Description: Patient with end stage renal disease on chronic hemodialysis treated with ebselen (Example I). The assay is classed as in vivo, human. Conditions: ebselen 1-20 mg/kg thrice/day, 6 months later. An excerpt:
(In some cases, renal biopsy will be performed, which will directly disclose the deposition of AGE in the renal parenchyma and increased proportion of SA-beta-galactosidase-stained endothelial cells). […] In addition, the patient has their arteriovenous fistula revised 3 times due to clotting and stenosis. The patient is also complaining of a non-healing foot ulcer and intermittent claudication, both signs of peripheral vascular disease. […] Similar results are obtained in similar patients who are administered other ebselen-class compounds.

As for `N=C(NO)NCCC[C@H](N)C(=O)O` [NOHA, N^ω-hydroxyl-L-arginine], in assay [1], the “reversal of premature senescence in HUVECs on GC (SA β-galactosidase staining, FIG. 1)” value (“reversal … (SA β-galactosidase staining, FIG. 1)” below) is recorded as “able to reverse premature senescence at all dilutions of GC” and the “development of premature senescence (SA β-galactosidase staining) in HUVECs grown on GC” value (“development of premature senescence … on GC” for short) was “completely abolished the development of premature senescence”.
With `O=c1c2ccccc2[se]n1-c1ccccc1` [ebselen, 2-phenyl-1,2-benzisoselenazol-3(2H)-one], the “thrombotic and atheroembolic complications after vascular graft implantation” value in assay [2] was “less thrombotic and atheroembolic complications”. In addition, in assay [3], the “thrombotic and atheroembolic complications after artificial valve implantation” value is “less thrombotic and atheroembolic complications”. In addition, the “symptoms related to the memory loss” value in the assay with Alzheimer's disease is “no deterioration and a partial improvement of symptoms related to the memory loss”. Also, in the assay on diabetes mellitus, the clinical outcome is on record as “significant subjective improvement of coronary symptoms”. The same compound yielded a pentosidine after treatment with diabetes mellitus (before 2.3 pmol/mg) of at most 1.7 pmol/mg. In the assay with diabetes mellitus (before 41 U/ml), the “Amadori serum albumin after treatment” value is at most 30 U/ml. Also, the “development of premature senescence (SA β-galactosidase staining) in HUVEC grown on glycated collagen” value in assay [1] (0.1 mM ebselen applied day 1, 2 hours after plating, evaluated on days 3 and 5) is given as “completely abolished the development of premature senescence”. Besides, the “reversal of premature senescence in HUVEC on glycated collagen” value in assay [1] (HUVEC on glycated collagen 3 days, ebselen added every 12 hours from day 3, examined day 5) is on record as “able to reverse premature senescence at all dilutions of glycated collagen”. Besides, in assay [1], the “reversal … (SA β-galactosidase staining, FIG. 1)” value is listed as “able to reverse premature senescence at all dilutions of GC” and the “development of premature senescence … on GC” value is reported as “completely abolished the development of premature senescence”. For the same compound, in the assay on end stage renal disease, the clinical outcome is on record as “significant subjective improvement of coronary symptoms, renal disease, healing of foot ulcer, normalization of blood pressure” and the pentosidine after treatment is given as 1.7 pmol/mg. Moreover, the “Amodori serum albumin after treatment” value in the assay with end stage renal disease (before 40 U/ml) is listed as 30 U/ml.
Take `N=C(N)NCCC[C@H](N)C(=O)O` [L-arginine]: the “reversal … (SA β-galactosidase staining, FIG. 1)” value in assay [1] is “reversed senescence at low but not high concentrations of GC”.
Consider `O=C(O)c1ccc(/C2=C3\C=CC(=N3)/C(c3ccc(C(=O)O)cc3)=c3/cc/c4[n]3[Mn]([Cl])[n]3c2ccc3/C(c2ccc(C(=O)O)cc2)=C2/C=CC(=N2)\C=4c2ccc(C(=O)O)cc2)cc1` [MnTBAP, [5,10,15,20-tetrakis(4-carboxyphenyl)-porphyrinato]manganese (III) chloride], for which, in assay [1], the “reversal … (SA β-galactosidase staining, FIG. 1)” value is reported as “able to reverse premature senescence at all dilutions of GC” and the “development of premature senescence … on GC” value is “completely abolished the development of premature senescence”.

For the origin of these results see patent US20050113427A1, “Use of peroxynirite scavengers or peroxynitrite formation inhibitors that do not diminish nitric oxide synthesis or activity to reverse or prevent premature vascular senescence” (ArgiNOx, Inc., priority 2001, published 2005).
